How the values were obtained:
[1] = tested on: Maize (variety: A188) immature embryos; assay: Effect of auxin type in coculture medium on Agrobacterium-mediated transformation efficiency (GUS-positive plants / inoculated immature embryos); format: cell-based; conditions: for transformation efficiency relative to control (2,4-D), in words / transformation efficiency: auxin 1.5 mg/l in coculture medium, Agrobacterium LBA4404 (pSB131); for transformation efficiency: coculture in the dark at 25° C. for 7 days, 33 to 35 immature embryos per test
Excerpt: (§1) Transformation efficiency can be determined by any calculation method commonly used by those skilled in the art, for example, can be determined from a value calculated by dividing the number of transformed plants by the number of Agrobacterium-inoculated explants.
(§2) FIG. 1 is a graph showing the effect of auxin type in a coculture medium on transformation efficiency in maize. 33 to 35 immature embryos were provided for each test. The vertical axis represents the transformation efficiency (calculated by dividing the number of GUS-positive plants obtained in each test by the number of inoculated immature embryos), while the horizontal axis represents the type of auxin contained in the coculture medium. The auxin concentration in the coculture medium was set to 1.5 mg/l for each test.
Maize (variety: A188) immature embryos (1.0 to 1.5 mm in size) at 7 to 14 days after pollination were aseptically collected and washed once with LS-inf liquid medium (Non-patent Publication No. 11), followed by pretreatment (thermal treatment at 46° C. for 3 minutes and centrifugation at 15,000 rpm for 10 minutes) to increase gene transfer efficiency. In LS-inf liquid medium containing 100 μM acetosyringone, Agrobacterium strain LBA4404 (pSB131) (Non-patent Publication No. 11) was suspended at about 1.0×10^9 cfu/ml to prepare an inoculum. The thermally-treated and centrifuged immature embryos were mixed with the inoculum, vortexed for 30 seconds, and then allowed to stand for 5 minutes at room temperature. The Agrobacterium-inoculated immature embryos were placed, with their embryonic discs facing up, onto a coculture medium containing 2,4,5-T (2,4,5-trichlorophenoxyacetic acid), picloram (4-amino-3,5,6-trichloropicolinic acid), TIBA (2,3,5-triiodobenzoic acid) or dicamba at a concentration of 1.5 mg/l in IS-AS medium (Non-patent Publication No. 11; solidified with 8 g/l agarose) which had been prepared to exclude 2,4-D and contain 5 μM AgNO3 and 5 μM CuSO4. A control medium was prepared to contain 5 μM AgNO3 and 5 μM CuSO4 in LS-AS medium (solidified with 8 g/l agarose).
The immature embryos cultured in the dark at 25° C. for 7 days were placed onto LSD1.5 medium (Non-patent Publication No. 11) containing 5 μM AgNO3, 5 mg/l phosphinothricin (PPT), 250 mg/l carbenicillin and 100 mg/l cefotaxime, and then cultured in the dark at 25° C. for 10 days. The immature embryos were transferred to the same medium, except that the PPT concentration was set to 10 mg/l, and cultured under the same conditions for 3 weeks. The grown calli were excised with a surgical knife, placed onto a fresh medium of the same composition, and cultured under the same conditions for 3 weeks. The grown calli were excised, placed onto LSZ medium (Non-patent Publication No. 11) containing 10 μM CuSO4 and 5 mg/l PPT, and cultured in the light at 25° C. for about 2 weeks. Along with determining the number of immature embryos which regenerated into whole plants, leaves of the regenerated plants were partially excised, immersed in 0.1 M phosphate buffer (pH 6.8) containing 0.1% Triton X-100 and allowed to stand at 37° C. for 1 hour. The phosphate buffer was removed and then replaced with another phosphate buffer containing 1.0 mM 5-bromo-4-chloro-3-indolyl-β-D-glucuronic acid (X-gluc) and 20% methanol. After incubation at 37° C. for 24 hours, GUS gene expression was examined.

[2] = tested on: immature embryos (variety: A188); assay: Effect of dicamba and 2,4-D in coculture medium on transformation efficiency (drop inoculation); format: cell-based, Maize; conditions: for transformation efficiency: auxin 1.5 mg/l in coculture medium, Agrobacterium LBA4404 (U0009B) with hydroxyapatite, 25 to 26 immature embryos per test
Excerpt: as §1
as §2, with “FIG. 3” for “FIG. 1”, “in maize (drop inoculation). 25” for “in maize. 33”, “to 26” for “to 35”
The vector U0009B shown in FIG. 2 and SEQ ID NO: 1 was constructed by adding necessary elements to a vector having pSB11 (Non-patent Publication No. 27) as a skeletal structure. An inoculum (1 ml) of Agrobacterium strain LBA4404 (U0009B) prepared in the same manner as shown in Example 1 was supplemented with about 80 mg of hydroxyapatite (Bio-Rad). […] A control medium was prepared to contain 5 μM AgNO3 and 5 μM CuSO4 in LS-AS medium (solidified with 8 g/l agarose). After shaking with a vortex mixer to ensure a uniformly dispersed state of hydroxyapatite in the inoculum, 5 μl of the inoculum was added dropwise onto the immature embryos. After the inoculum added dropwise was dried, the immature embryos were transferred to another site on the same medium. After the culture container was sealed, coculture was performed in the dark at 25° C. for 7 days. The cocultured immature embryos were cultured in the same manner as shown in Example 1 to obtain regenerated plants, along with examining GUS gene expression in leaves of the regenerated plants.

[3] = tested on: maize; conditions: 15 μM dicamba vs 6.75 μM 2,4-D; media also differ in other components (silver nitrate); cited from earlier work
[4] = tested on: maize immature embryos; conditions: 15 μM dicamba vs 4.5 μM 2,4-D; cited from earlier work

SMILES	transformation efficiency relative to control (2,4-D), in words [1]	transformation efficiency [2]	transformation efficiency [1]	also measured
O=C(O)COc1cc(Cl)c(Cl)cc1Cl [2,4,5-T, 2,4,5-trichlorophenoxyacetic acid]	lower than that of the control			
O=C(O)COc1ccc(Cl)cc1Cl [2,4-D, 2,4-dichlorophenoxyacetic acid]		11.5%	20.6%	
O=C(O)c1cc(I)cc(I)c1I [TIBA, 2,3,5-triiodobenzoic acid]	produced no transformed plant			
COc1c(Cl)ccc(Cl)c1C(=O)O [dicamba, 3,6-dichloro-o-anisic acid]		28.0%	27.3%	increase in the transformation efficiency compared to the conventional method using 2,4-D ([2]; dicamba 1.5 mg/l, 28.0/11.5): 2.43 fold; increase in the transformation efficiency compared to the conventional method using 2,4-D ([1]; dicamba 1.5 mg/l in coculture medium, 27.3/20.6): 1.33 fold; transformation efficiency, dicamba medium vs 2,4-D medium [3]: higher; formation rate of calli having regeneration ability, compared to 2,4-D [4]: increased
Nc1c(Cl)c(Cl)nc(C(=O)O)c1Cl [picloram, 4-amino-3,5,6-trichloropicolinic acid]	lower than that of the control			

Source: patent US20100068812A1, “METHOD FOR INCREASING TRANSFORMATION EFFICIENCY IN PLANTS, COMPRISING COCULTURE STEP FOR CULTURING PLANT TISSUE WITH COCULTURE MEDIUM CONTAINING 3, 6-DICHLORO-O-ANISIC ACID” (Japan Tobacco Inc., priority 2007, published 2010)
